Test results from patent publication US8394986B2, “Phenoxiacetic acid derivatives” (AstraZeneca AB, priority 2003, dated 2013).
pIC50: −log10 of the molar value. Structures can show the parent of a compound that is named as a salt.

target: T1, rhCRTh2 (Homo sapiens, UniProt Q9Y5Y4); assay: Ligand binding assay ([3H]PGD2 SPA, HEK cell membranes); conditions: [3H]PGD2 displacement, membranes of HEK cells expressing rhCRTh2/Ga16, SPA beads, 2 hours room temperature
T1 construct: expressed in transfected cells; membranes prepared
T1 sequence (Q9Y5Y4 1-395): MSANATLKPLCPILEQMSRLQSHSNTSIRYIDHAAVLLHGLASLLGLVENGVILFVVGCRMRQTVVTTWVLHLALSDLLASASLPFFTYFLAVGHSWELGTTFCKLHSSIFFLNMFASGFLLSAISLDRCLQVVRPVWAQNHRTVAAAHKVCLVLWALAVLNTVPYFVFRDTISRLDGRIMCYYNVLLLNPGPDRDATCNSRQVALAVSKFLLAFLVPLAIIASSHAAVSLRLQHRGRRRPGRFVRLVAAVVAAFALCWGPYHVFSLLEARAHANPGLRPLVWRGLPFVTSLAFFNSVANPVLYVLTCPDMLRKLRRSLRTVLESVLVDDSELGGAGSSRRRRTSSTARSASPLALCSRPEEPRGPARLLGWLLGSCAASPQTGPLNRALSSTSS
Experimental: [^3H]PGD2 was purchased from Perkin Elmer Life Sciences with a specific activity of 100-210 Ci/mmol All other chemicals were of analytical grade.
HEK cells expressing rhCRTh2/Ga16 were routinely maintained in DMEM containing 10% Foetal Bovine Serum (HyClone), 1 mg/ml geneticin, 2 mM L-glutamine and 1% non-essential amino acids. For the preparation of membranes, the adherent transfected HEKcells were grown to confluence in two layer tissue culture factories (Fisher, catalogue number TKT-170-070E). Maximal levels of receptor expression were induced by addition of […] sodium butyrate for the last 18 hours of culture. The adherent cells were washed once with phosphate buffered saline (PBS, 50 ml per cell factory) and detached by the addition of 50 ml per cell factory of ice-cold membrane homogenisation buffer [20 mM HEPES (pH 7.4), 0.1 mM dithiothreitol, 1 mM EDTA, 0.1 mM phenyl methyl sulphonyl fluoride and 100 μg/ml bacitracin]. […] The final pellet was re-suspended in 4 ml of membrane homogenisation buffer per cell factory used and the protein content determined Membranes were stored at −80° C. in suitable aliquots.
All assays were performed in Corning clear bottomed, white 96-well NBS plates (Fisher). […] (The optimum coating concentrations were determined for each batch of membranes) The beads were pelleted by centrifugation (800×g for 7 minutes at 4° C.), washed once with assay buffer (50 mM HEPES pH 7.4 containing 5 mM magnesium chloride) and finally re-suspended in assay buffer at a bead concentration of 10 mg/ml.
Each assay contained 20 μl of 6.25 nM [^3H]PGD2, 20 μl membrane saturated SPA beads both in assay buffer and 10 μl of compound solution or 13,14-dihydro-15-keto prostaglandin D2 (DK-PGD2, for determination of non-specific binding, Cayman chemical company). […] The assay plate was incubated at room temperature for 2 hours and counted on a Wallac Microbeta liquid scintillation counter (1 minute per well).

SMILES | pIC50
CCS(=O)(=O)c1ccc(Cc2cc(C(F)(F)F)ccc2OCC(=O)O)cc1 [Example 4, [2-[4-(Ethylsulfonyl)benzyl]-4-(trifluoromethyl)phenoxy]acetic acid] | 8.00
CCS(=O)(=O)c1ccc(Oc2cc(Cl)ccc2OCC(=O)O)cc1 [Example 5, [4-Chloro-2-[4-(ethylsulfonyl)phenoxy]phenoxy]acetic acid, sodium salt] | 8.00
CCS(=O)(=O)c1ccc(Oc2cc(F)ccc2OCC(=O)O)c(Cl)c1 [Example 43, {2-[2-Chloro-4-(ethylsulfonyl)phenoxy]-4-fluorophenoxy}acetic acid] | 9.00
